Source: US12264156B2, “Compounds and pharmaceutical compositions thereof for the treatment of diseases” (GALAPAGOS NV, priority 2018, dated 2025)

Legend:
[1] = target: T1, SIK3 (Homo sapiens, UniProt Q9Y2K2); assay: ADP-Glo kinase assay, SIK3; format: biochemical; conditions: ADP-Glo SIK kinase assay
T1 construct: purchased SignalChem S12-11G-100
How it was run: (§1)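 Enzyme–substrate mix was started with ATP and incubated 120 min at RT. ADP formed was quantified by ADP-Glo: 40 min ATP depletion, then 30 min detection reagent converting ADP to ATP for luciferase luminescence, which rises with kinase activity. Controls: 1% DMSO and 10 μM staurosporine (final).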

[2] = system: LPS-induced TNFα in monocytes; assay: Monocytes assay: LPS-triggered TNFα (ELISA); format: cell-based, human; conditions: Homo sapiens, Monocyte, 4 h, LPS 200 ng/mL, supernatant after 4 h
How it was run: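 Human CD14+ monocytes from buffy-coat PBMCs (magnetic bead selection) were seeded at 100 000 cells/well and pretreated with compound for 1 h at 37° C (0.2% DMSO). They were then stimulated with 200 ng/mL LPS for 4 h, and supernatant TNFα was measured by chemiluminescent sandwich ELISA as percent inhibition.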

[3] = target: T2, SIK2 (Homo sapiens, UniProt Q9H0K1); assay: ADP-Glo kinase assay, SIK2; format: biochemical; conditions: ADP-Glo SIK kinase assay
T2 construct: purchased ThermoFisher Scientific PV4792
T2 sequence (Q9H0K1 whole entry): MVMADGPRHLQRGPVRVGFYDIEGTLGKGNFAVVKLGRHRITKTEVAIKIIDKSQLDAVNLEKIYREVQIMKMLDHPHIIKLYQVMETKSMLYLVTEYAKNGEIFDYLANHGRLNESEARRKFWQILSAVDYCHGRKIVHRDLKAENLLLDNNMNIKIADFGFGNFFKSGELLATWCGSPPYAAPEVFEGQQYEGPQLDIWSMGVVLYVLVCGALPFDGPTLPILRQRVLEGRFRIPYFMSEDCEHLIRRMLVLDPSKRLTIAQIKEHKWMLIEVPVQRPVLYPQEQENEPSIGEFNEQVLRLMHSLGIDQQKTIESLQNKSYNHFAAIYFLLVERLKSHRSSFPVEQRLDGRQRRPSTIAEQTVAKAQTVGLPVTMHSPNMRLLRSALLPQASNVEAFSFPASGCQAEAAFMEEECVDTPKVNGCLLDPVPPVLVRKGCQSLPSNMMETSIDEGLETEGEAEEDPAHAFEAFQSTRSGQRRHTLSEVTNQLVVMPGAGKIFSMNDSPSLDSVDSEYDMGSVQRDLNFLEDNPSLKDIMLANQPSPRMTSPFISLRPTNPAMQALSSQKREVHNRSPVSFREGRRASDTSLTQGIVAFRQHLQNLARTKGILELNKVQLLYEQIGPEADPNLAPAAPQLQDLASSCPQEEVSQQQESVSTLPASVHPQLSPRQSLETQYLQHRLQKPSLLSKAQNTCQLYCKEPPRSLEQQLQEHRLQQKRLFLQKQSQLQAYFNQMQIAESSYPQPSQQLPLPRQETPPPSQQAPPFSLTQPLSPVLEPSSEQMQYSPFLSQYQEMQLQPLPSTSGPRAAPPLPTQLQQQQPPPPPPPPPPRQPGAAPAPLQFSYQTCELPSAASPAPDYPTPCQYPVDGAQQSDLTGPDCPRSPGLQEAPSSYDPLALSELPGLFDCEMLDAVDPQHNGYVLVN
How it was run: as §1

[4] = system: LPS triggered IL-10 secretion in monocytes; assay: Monocytes assay: LPS-triggered IL-10 (ELISA); format: cell-based, human; conditions: LPS 200 ng/mL, supernatant after 4 h, maximal fold change vs LPS only
How it was run: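 Human CD14+ monocytes, magnetically isolated from buffy-coat PBMCs, were seeded at 100 000 cells/well and preincubated with compound for 1 h at 37° C (0.2% DMSO). LPS was then added at a final 200 ng/mL for 4 h. Supernatant IL-10 was quantified by chemiluminescent sandwich ELISA against a standard curve.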

[5] = target: T3, SIK1 (Homo sapiens, UniProt P57059); assay: ADP-Glo kinase assay, SIK1; format: biochemical; conditions: ADP-Glo SIK kinase assay
T3 construct: purchased Carna Biosciences 02-131
T3 sequence (P57059 whole entry): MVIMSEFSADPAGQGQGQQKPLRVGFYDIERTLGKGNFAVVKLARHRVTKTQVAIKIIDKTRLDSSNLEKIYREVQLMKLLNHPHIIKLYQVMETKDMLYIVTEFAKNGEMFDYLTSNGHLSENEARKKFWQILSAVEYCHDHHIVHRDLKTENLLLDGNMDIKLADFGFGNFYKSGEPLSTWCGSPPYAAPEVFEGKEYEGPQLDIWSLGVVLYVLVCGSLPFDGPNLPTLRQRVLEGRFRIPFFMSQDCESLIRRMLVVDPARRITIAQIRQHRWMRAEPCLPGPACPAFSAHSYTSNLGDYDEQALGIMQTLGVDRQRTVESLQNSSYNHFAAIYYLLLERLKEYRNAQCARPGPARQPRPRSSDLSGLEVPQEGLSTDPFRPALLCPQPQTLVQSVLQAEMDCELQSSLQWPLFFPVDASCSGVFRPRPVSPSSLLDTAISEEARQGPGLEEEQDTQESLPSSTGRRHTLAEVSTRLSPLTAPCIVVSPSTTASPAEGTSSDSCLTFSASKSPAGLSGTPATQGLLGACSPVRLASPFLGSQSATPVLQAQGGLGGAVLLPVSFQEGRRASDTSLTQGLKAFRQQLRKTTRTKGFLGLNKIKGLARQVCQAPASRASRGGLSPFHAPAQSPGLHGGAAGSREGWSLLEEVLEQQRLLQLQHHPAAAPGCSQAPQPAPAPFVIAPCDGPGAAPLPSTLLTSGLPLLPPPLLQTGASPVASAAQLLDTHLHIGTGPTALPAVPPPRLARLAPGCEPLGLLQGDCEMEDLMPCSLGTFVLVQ
How it was run: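 Wells with 1% DMSO or 10 μM staurosporine (final) define the control window. The kinase reaction with substrate and ATP runs 120 min at RT, followed by ADP-Glo detection: ATP depletion (40 min) and ADP-derived luminescence (30 min).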

T1 sequence (Q9Y2K2 whole entry): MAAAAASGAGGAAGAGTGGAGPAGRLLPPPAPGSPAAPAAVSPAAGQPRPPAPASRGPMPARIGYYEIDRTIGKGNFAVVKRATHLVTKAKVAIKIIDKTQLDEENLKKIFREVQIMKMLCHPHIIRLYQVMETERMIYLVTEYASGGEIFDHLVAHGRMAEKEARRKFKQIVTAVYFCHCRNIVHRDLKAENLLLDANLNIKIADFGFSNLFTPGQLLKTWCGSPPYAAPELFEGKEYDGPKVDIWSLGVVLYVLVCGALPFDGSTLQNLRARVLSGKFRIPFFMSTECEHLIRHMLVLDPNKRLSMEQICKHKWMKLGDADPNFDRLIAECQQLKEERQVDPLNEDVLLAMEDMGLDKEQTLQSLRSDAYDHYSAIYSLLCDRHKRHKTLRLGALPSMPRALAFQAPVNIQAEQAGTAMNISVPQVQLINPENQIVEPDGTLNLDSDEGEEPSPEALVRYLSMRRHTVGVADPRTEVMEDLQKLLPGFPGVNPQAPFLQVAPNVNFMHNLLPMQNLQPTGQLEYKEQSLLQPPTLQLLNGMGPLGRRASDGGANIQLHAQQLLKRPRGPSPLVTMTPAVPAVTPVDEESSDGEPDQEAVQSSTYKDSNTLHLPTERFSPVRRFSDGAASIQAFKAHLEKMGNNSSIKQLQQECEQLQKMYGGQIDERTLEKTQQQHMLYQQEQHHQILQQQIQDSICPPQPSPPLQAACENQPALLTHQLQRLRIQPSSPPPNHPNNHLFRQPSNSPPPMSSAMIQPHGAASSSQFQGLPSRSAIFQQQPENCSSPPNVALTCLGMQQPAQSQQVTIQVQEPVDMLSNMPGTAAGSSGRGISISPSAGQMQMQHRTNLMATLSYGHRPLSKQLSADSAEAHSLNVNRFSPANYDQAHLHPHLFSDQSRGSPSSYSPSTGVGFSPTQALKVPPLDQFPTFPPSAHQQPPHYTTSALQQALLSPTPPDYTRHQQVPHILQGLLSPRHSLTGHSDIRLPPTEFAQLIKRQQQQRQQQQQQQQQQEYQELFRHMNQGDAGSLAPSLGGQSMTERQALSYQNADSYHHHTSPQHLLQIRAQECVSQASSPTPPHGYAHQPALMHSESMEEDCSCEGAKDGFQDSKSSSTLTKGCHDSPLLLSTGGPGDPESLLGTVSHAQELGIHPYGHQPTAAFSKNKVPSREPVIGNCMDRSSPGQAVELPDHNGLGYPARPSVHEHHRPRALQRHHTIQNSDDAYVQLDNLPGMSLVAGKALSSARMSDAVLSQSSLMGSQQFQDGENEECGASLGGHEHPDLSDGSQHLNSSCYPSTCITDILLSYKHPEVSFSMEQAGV

| Structure (SMILES) | IC50 [1] [nM] | EC50 [2] [nM] | IC50 [3] [nM] | IL-10 FCmax median [4] | IC50 [5] [nM] |
| --- | --- | --- | --- | --- | --- |
| COc1cc(-c2cnc3cc(OCCC4CCCN4C4COC4)ccn23)cc(OC(F)F)c1C(=O)NC1CC1 (centres unmarked) [compound 299, N-cyclopropyl-2-(difluoromethoxy)-6-methoxy-4-[7-[2-[1-(oxetan-3-yl)pyrrolidin-2-yl]ethoxy]imidazo[1,2-a]pyridin-3-yl]benzamide] | 0.01 to 10 | 0.1 to 100 | 0.01 to 10 | +++ (>4.5) | 10 to 100 |
| COc1cc(-c2cnc3cc(OCCCN4CCC45COC5)ccn23)cc(OC(F)F)c1C(=O)NC1CC1 [compound 300, N-cyclopropyl-2-(difluoromethoxy)-6-methoxy-4-[7-[3-(6-oxa-1-azaspiro[3.3]heptan-1-yl)propoxy]imidazo[1,2-a]pyridin-3-yl]benzamide] | 0.01 to 10 | 0.1 to 100 | 0.01 to 10 | +++ (>4.5) | 10 to 100 |
| COc1cc(-c2cnc3cc(OCCC4CCCN4C(C)C)ccn23)cc(OC(F)F)c1C(=O)NC1CC1 (centres unmarked) [compound 301, N-cyclopropyl-2-(difluoromethoxy)-4-[7-[2-(1-isopropylpyrrolidin-2-yl)ethoxy]imidazo[1,2-a]pyridin-3-yl]-6-methoxy-benzamide] | 0.01 to 10 | 0.1 to 100 | 0.01 to 10 | +++ (>4.5) | 10 to 100 |
| COc1cc(-c2cnc3cc(OCCCN4CCC45CCC5)ccn23)cc(OC(F)F)c1C(=O)NC1CC1 [compound 302, 4-[7-[3-(1-azaspiro[3.3]heptan-1-yl)propoxy]imidazo[1,2-a]pyridin-3-yl]-N-cyclopropyl-2-(difluoromethoxy)-6-methoxy-benzamide] | 0.01 to 10 | 0.1 to 100 | 0.01 to 10 | +++ (>4.5) | 10 to 100 |
| COc1cc(-c2cnc3cc(OCCCN4CCCC5(COC5)C4)ccn23)cc(OC(F)F)c1C(=O)NC1CC1 [compound 303, N-cyclopropyl-2-(difluoromethoxy)-6-methoxy-4-[7-[3-(2-oxa-8-azaspiro[3.5]nonan-8-yl)propoxy]imidazo[1,2-a]pyridin-3-yl]benzamide] | 0.01 to 10 | 0.1 to 100 | 0.01 to 10 | +++ (>4.5) | 10 to 100 |
| COc1cc(-c2cnc3cc(OC[C@H]4CCN(C(C)C)C4)ccn23)cc(OC(F)F)c1C(=O)NC1CC1 [compound 316, N-cyclopropyl-2-(difluoromethoxy)-4-[7-[[(3S)-1-isopropylpyrrolidin-3-yl]methoxy]imidazo[1,2-a]pyridin-3-yl]-6-methoxy-benzamide] | 0.01 to 10 | 0.1 to 100 | 0.01 to 10 | +++ (>4.5) | 10 to 100 |
| COc1cc(-c2cnc3cc(OCCCN4CCC(O)C4)ccn23)cc(OC(F)F)c1C(=O)NC1CC1 (centres unmarked) [compound 319, N-cyclopropyl-2-(difluoromethoxy)-4-[7-[3-(3-hydroxypyrrolidin-1-yl)propoxy]imidazo[1,2-a]pyridin-3-yl]-6-methoxy-benzamide] | 0.01 to 10 | 100 to 1000 | 0.01 to 10 | ++ (>1.5-4.5) | 10 to 100 |
| COc1cc(-c2cnc3cc(OCCCN4CCS(=N)(=O)CC4)ccn23)cc(OC(F)F)c1C(=O)NC1CC1 [compound 327, N-cyclopropyl-2-(difluoromethoxy)-4-[7-[3-(1-imino-1-oxo-1,4-thiazinan-4-yl)propoxy]imidazo[1,2-a]pyridin-3-yl]-6-methoxy-benzamide] | 0.01 to 10 | 100 to 1000 | 0.01 to 10 | +++ (>4.5) | 10 to 100 |
| COc1cc(-c2cnc3cc(OC[C@H]4CCCN(C(C)C)C4)ccn23)cc(OC(F)F)c1C(=O)NC1CC1 [compound 329, N-cyclopropyl-2-(difluoromethoxy)-4-[7-[[(3S)-1-isopropyl-3-piperidyl]methoxy]imidazo [1,2-a]pyridin-3-yl]-6-methoxy-benzamide] | 0.01 to 10 | 0.1 to 100 | 0.01 to 10 | +++ (>4.5) | 10 to 100 |
| COc1cc(-c2cnc3cc(OC[C@@H]4CCN(C(C)C)C4)ccn23)cc(OC(F)F)c1C(=O)NC1CC1 [compound 337, N-cyclopropyl-2-(difluoromethoxy)-4-[7-[[(3R)-1-isopropylpyrrolidin-3-yl]methoxy]imidazo[1,2-a]pyridin-3-yl]-6-methoxy-benzamide] | 0.01 to 10 | 0.1 to 100 | 0.01 to 10 | +++ (>4.5) | 10 to 100 |
| COc1cc(-c2cnc3cc(OC[C@@H]4CCCN(C(C)C)C4)ccn23)cc(OC(F)F)c1C(=O)NC1CC1 [compound 338, N-cyclopropyl-2-(difluoromethoxy)-4-[7-[[(3R)-1-isopropyl-3-piperidyl]methoxy]imidazo [1,2-a]pyridin-3-yl]-6-methoxy-benzamide] | 0.01 to 10 | 0.1 to 100 | 0.01 to 10 | ++ (>1.5-4.5) | 10 to 100 |
| COc1cc(-c2cnc3cc(OCCCN4CCC(F)(F)C(O)C4)ccn23)cc(OC(F)F)c1C(=O)NC1CC1 (centres unmarked) [compound 344, N-cyclopropyl-4-[7-[3-(4,4-difluoro-3-hydroxy-1-piperidyl)propoxy]imidazo [1,2-a]pyridin-3-yl]-2-(difluoromethoxy)-6-methoxy-benzamide] | 0.01 to 10 | 0.1 to 100 | 0.01 to 10 | ++ (>1.5-4.5) | 10 to 100 |
| COc1cc(-c2cnc3cc(OCCCN4CC(O)C(F)(F)C4)ccn23)cc(OC(F)F)c1C(=O)NC1CC1 (centres unmarked) [compound 345, N-cyclopropyl-4-[7-[3-(3,3-difluoro-4-hydroxy-pyrrolidin-1-yl)propoxy]imidazo[1,2-a]pyridin-3-yl]-2-(difluoromethoxy)-6-methoxy-benzamide] | 0.01 to 10 | 0.1 to 100 | 0.01 to 10 | +++ (>4.5) | 10 to 100 |
| COc1cc(-c2cnc3cc(OCCCN4CC(O)(C(F)(F)F)C4)ccn23)cc(OC(F)F)c1C(=O)NC1CC1 [compound 348, N-cyclopropyl-2-(difluoromethoxy)-4-[7-[3-[3-hydroxy-3-(trifluoromethyl)azetidin-1-yl]propoxy]imidazo[1,2-a]pyridin-3-yl]-6-methoxy-benzamide] | 0.01 to 10 | 0.1 to 100 | 0.01 to 10 | ++ (>1.5-4.5) | 10 to 100 |
| COc1cc(-c2cnc3cc(OCCCN4CCCCC4)ccn23)cc(OC(F)F)c1C(=O)N1CC(O)(C(F)(F)F)C1 [compound 354, [2-(difluoromethoxy)-6-methoxy-4-[7-[3-(1-piperidyl)propoxy]imidazo[1,2-a]pyridin-3-yl]phenyl]-[3-hydroxy-3-(trifluoromethyl)azetidin-1-yl]methanone] | 0.01 to 10 | 100 to 1000 | 0.01 to 10 | +++ (>4.5) | 10 to 100 |
| COc1cc(-c2cnc3cc(OCCCN4CCCCC4)ccn23)cc(OC(F)F)c1C(=O)NCC#N [compound 356, N-(cyanomethyl)-2-(difluoromethoxy)-6-methoxy-4-[7-[3-(1-piperidyl)propoxy]imidazo[1,2-a]pyridin-3-yl]benzamide] | 0.01 to 10 | 100 to 1000 | 0.01 to 10 | +++ (>4.5) | 10 to 100 |
| COc1cc(-c2cnc3cc(OCCCN4CCCCC4)ccn23)cc(OC(F)F)c1C(=O)N1CC(O)(C(F)F)C1 [compound 358, [2-(difluoromethoxy)-6-methoxy-4-[7-[3-(1-piperidyl)propoxy]imidazo[1,2-a]pyridin-3-yl]phenyl]-[3-(difluoromethyl)-3-hydroxy-azetidin-1-yl]methanone] | 0.01 to 10 | 100 to 1000 | 0.01 to 10 | +++ (>4.5) | 10 to 100 |
| COc1cc(-c2cnc3cc(OCCCN4CCC(F)(CO)CC4)ccn23)cc(OC(F)F)c1C(=O)NC1CC1 [compound 360, N-cyclopropyl-2-(difluoromethoxy)-4-[7-[3-[4-fluoro-4-(hydroxymethyl)-1-piperidyl]propoxy]imidazo [1,2-a]pyridin-3-yl]-6-methoxy-benzamide] | 0.01 to 10 | 0.1 to 100 | 0.01 to 10 | ++ (>1.5-4.5) | 10 to 100 |
| COc1cc(-c2cnc3cc(OCCCN4CC(C)(O)C4)ccn23)cc(OC(F)F)c1C(=O)NC1CC1 [compound 362, N-cyclopropyl-2-(difluoromethoxy)-4-[7-[3-(3-hydroxy-3-methyl-azetidin-1-yl)propoxy]imidazo[1,2-a]pyridin-3-yl]-6-methoxy-benzamide] | 0.01 to 10 | 100 to 1000 | 0.01 to 10 | ++ (>1.5-4.5) | 10 to 100 |
